In patent US7642261B2, “Use of 1-[4-(5-cyanoindol-3-yl)butyl]-4-(2-carbamoyl-benzofuran-5-yl)-piperazine and its physiologically acceptable salts” (Merck Patent GmbH, priority 2002, dated 2010):

What was measured:
Type in all cases: in vivo
[1] = test system: aged rats; experiment: Morris Water Maze in aged rats; conditions: old rats, tested at day 7, untreated old rats 95 sec, vehicle treated young rats 76 sec
Source text: Typical models for dementia, Alzheimer's disease and multi-infarct are the Passive Avoidance test in rats [S. D. Glick and B. Zimmerberg, Behav. Biol., 1972, 7: 245-254; D. K. Rush, Behav. Neural Biol., 1988, 50: 255-274] and the testing of memory functions in the Morris Water Maze in aged rats [R. Morris, J. Neurosci. Methods, 1984, 11: 47-60, F. H. Gage et al. Neurobiol. Aging. 1984, 5: 43-48].
The Morris Water Maze consists of a circular water tank (150 cm in diameter) filled with water with an escape platform (15 cm in diameter) 18 cm from the periphery beneath the surface of the water. The water is made opaque rendering the platform invisible. Rats placed in the tank swim around and find the hidden platform accidently after a certain time (latency), and the latency to find the platform is taken as measure. When given further training session to find the platform, rats show reduced latencies from day to day, i.e. remember (learn) the location of the platform. But compared to young rats, aged rats perform less well in learning over days reflecting impaired learning capacity. Drugs effective for dementia and particularly Alzheimers disease improve the earning capacity of aged rats.
1-[4-(5-cyanoindol-3-yl)butyl]-4-(2-carbamoyl-benzofuran-5-yl)-piperazine hydrochloride is administered to old rats at oral doses of 1 and 3 mg/kg every day. […]

[2] = test system: rats; experiment: Animal models of sexual function (behavioural measures for sexual activity); conditions: penile erection, ejaculatory behaviour, mating frequency in male rats, receptive behaviours in female rats
Source text: In animal models, various behavioural measures for sexual function can be used in animal models depending on the targeted dysfunction in humans, e.g. reduced libido, anorgasmia, or ejaculation disorders. Measures for sexual activity in animals include fascilitation or prolongation of penile erection, ejaculatory behaviour or frequency of mating behaviour in male rats, or the percentage of receptive behaviours in female rats [e.g.: S. Ahlenius and K. Larsson, Neurochem. Res., 1997, 22: 1065-1070; S. Ahlenius and K. Larsson, Psychopharmacology, 1998, 137: 374-382; J. Vega-Matuszcyk et al., Pharmacol. Biochem. Behav., 1998, 60: 527-532; J. M. Cantor et al., Psychopharmacology, 1999; 144: 355-362]. 1-[4-(5-cyancindol-3-yl)butyl]-4-(2-carbamoyl-benzofuran-5-yl)-piperazine or one of its physiologically acceptable salts, in particular 1-[4-(5-cyanoindol-3-yl)butyl]-4-(2-carbamoyl-benzofuran-5-yl)-piperazine hydrochloride, were effective on various measures mentioned before.

[3] = Intradermal formalin test; conditions: 10 mg/kg p.o.
Protocol: Rapid procedures to test pain-relieving properties of drugs are the abdominal constriction (writhing) test according to E. Siegmund et all., Proc. Soc. Exp. Biol. Med. 1957, 95: 729-731 and the intradermal formalin test according to S. Hunskaar et al., J. Neurosci. Meth. 1985, 14: 69-76. For example, 1-[4-(5-cyanoindol-3-y1)butyl]-4-(2-carbamoyl-benzofuran-5-yl)-piperazine hydrochloride at 30 mg/kg p.c. reduced abdominal contrictions by 82%, and 10 mg/kg p.o. reduced the formalin-induced pain response by 79%.

In the case of `Cl.N#Cc1ccc2[nH]cc(CCCCN3CCN(c4ccc5oc(C(N)=O)cc5c4)CC3)c2c1` [1-[4-(5-cyanoindol-3-yl)butyl]-4-(2-carbamoyl-benzofuran-5-yl)-piperazine hydrochloride], the “latency to find the platform in the first attempt” value ([1]; oral 1 mg/kg every day) is reported as 77 s, the “latency to find the platform in the first attempt” value ([1]; oral 3 mg/kg every day) is reported as 73 s and the “effect on measures for sexual activity” value [2] is reported as “effective”. The “reduction of formalin-induced pain response” value [3] was 79%.
